# Test results published in US20230339937A1, “CONDENSED RING COMPOUNDS THAT INHIBIT H-PGDS” (SATO PHARMACEUTICAL CO., LTD., priority 2020, published 2023).
# Molecular target: T1, Recombinant human H-PGDS (Homo sapiens, UniProt O60760)
# T1 construct: made in house; host or cells: E. coli
# Test: H-PGDS inhibitory activity (prostaglandin D2 production from prostaglandin H2, measured by LC-MS/MS)
# Format: biochemical
# Conditions: recombinant human H-PGDS 1.0 nM expressed in E. coli; prostaglandin H2 25 μM; preincubated 15 minutes on ice, reacted on ice for 1 minute; concentration that inhibits prostaglandin D2 production by 50%
# Method: The H-PGDS inhibitory activity of each Example compound was measured according to the method reported by LIN, Jiang. et al. (NO 2007/041634).
# Recombinant human H-PGDS (final concentration: 1.0 nM) expressed in E. coli was mixed in an assay buffer containing 20 mM Tris-HCl (pH 8.0), 2 mM magnesium chloride, 2 mM reduced glutathione, and 0.5 mg/mL γ-globulin, and 150 μL of the mixture was dispensed into a 8-strip PCR tube (BM Equipment Co., Ltd.). Test compounds (Example compounds) (16.5 μL) at various concentrations dissolved in DMSO were added and the mixture was preincubated for 15 minutes on ice.
# Prostaglandin H2 (final concentration: 25 μM) (Cayman Chemical) was dispensed into another 8-strip PCR tube, and the solvent was dried and solidified using a vacuum concentrator (Thermo Fisher Scientific). To the dried and solidified prostaglandin H2 was added 50 μL of the assay buffer containing H-PGDS and each test compound after the preincubation, and the mixture was reacted on ice for 1 minute. 45 μL of this mixture was added to 45 μL of a stop solution (50 mM aqueous citric acid solution containing iron chloride at a final concentration of 4 mg/mL) to stop the reaction. Then, the reaction solution was deproteinized, added to a 96 square deep well plate (SHONANMARUHACHI STEC Co., Ltd.), and the prostaglandin D2 concentration in the reaction solution was measured by LC-MS/MS. ACQUITY (registered trademark) TQD (Waters) was used as a measuring instrument.
# Prostaglandin Da production activity (f) in the group with each test compound when a value obtained by subtracting the amount of production of prostaglandin D2 in the group without enzyme, which is non-specific production of prostaglandin D2, from the amount of production of prostaglandin Da in the group without test compound (DMSO-addition group) in each 8-strip PCR tube is 100% was calculated.
# T1 sequence (O60760 whole entry): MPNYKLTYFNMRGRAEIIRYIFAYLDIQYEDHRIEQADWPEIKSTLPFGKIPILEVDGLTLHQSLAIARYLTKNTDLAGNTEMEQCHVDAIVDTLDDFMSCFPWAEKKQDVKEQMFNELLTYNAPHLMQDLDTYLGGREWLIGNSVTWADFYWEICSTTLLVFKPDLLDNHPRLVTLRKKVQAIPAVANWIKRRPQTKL
row,IC50,SMILES
1,16 nM,"CC(C)(O)[C@H]1CC[C@H](NC(=O)c2ccc(-c3nccc4occc34)c(C#N)c2)CC1 [Example 133, 3-cyano-4-(furo[3,2-c]pyridin-4-yl)-N-[trans-4-(2-hydroxypropan-2-yl)cyclohexyl]benzamide]"
2,2.5 nM,"O=C(NC1CN(c2ccccn2)C1)c1ccc(-c2nccc3occc23)cc1 [Example 113, 4-(furo[3,2-c]pyridin-4-yl)-N-[1-(pyridin-2-yl)azetidin-3-yl]benzamide]"
3,1.5 nM,"CC(C)(O)[C@H]1CC[C@H](NC(=O)c2ccc(-c3nc(F)cc4occc34)cc2)CC1 [Example 316, 4-(6-fluorofuro[3,2-c]pyridin-4-yl)-N-[trans-4-(2-hydroxypropan-2-yl)cyclohexyl]benzamide]"
4,0.72 nM,"COCCn1cc(CNC(=O)c2ccc(-c3nccc4[nH]ccc34)cc2)cn1 [Example 48, N-{[1-(2-methoxyethyl)-1H-pyrazol-4-yl]methyl}-4-(1H-pyrrolo[3,2-c]pyridin-4-yl)benzamide]"
5,0.56 nM,"COCCCNC(=O)c1ccc(-c2nccc3[nH]ccc23)cc1 [Example 24, N-(3-methoxypropyl)-4-(1H-pyrrolo[3,2-c]pyridin-4-yl)benzamide]"
6,1.1 nM,"NS(=O)(=O)c1ccc(CCNC(=O)c2ccc(-c3nccc4[nH]ccc34)cc2)cc1 [Example 47, 4-(1H-pyrrolo[3,2-c]pyridin-4-yl)-N-(4-sulfamoylphenethyl) benzamide]"
7,1.5 nM,O=C(NCc1ccccn1)c1ccc(-c2nccc3[nH]ccc23)cc1 [Example 9]
8,1.2 nM,"NC(=O)c1cc(N2CCC(NC(=O)c3ccc(-c4nccc5occc45)cc3)CC2)ccn1 [Example 176, 4-{4-[4-(furo[3,2-c]pyridin-4-yl)benzamide]piperidin-1-yl}picolinamide]"
9,1.4 nM,"CCCCNC(=O)c1ccc(-c2nccc3[nH]ccc23)cc1 [Example 7, N-butyl-4-(1H-pyrrolo[3,2-c]pyridin-4-yl)benzamide]"
10,1.2 nM,"O=C(NC12CCC(O)(CC1)CC2)c1ccc(-c2nccc3occc23)c(F)c1 [Example 345, 3-fluoro-4-(furo[3,2-c]pyridin-4-yl)-N-(4-hydroxybicyclo[2.2.2]octan-1-yl)benzamide]"
11,1.3 nM,"O=C(N[C@H]1CC[C@H](NCC(F)(F)F)CC1)c1ccc(-c2nccc3occc23)cc1 [Example 119, 4-(furo[3,2-c]pyridin-4-yl)-N-{trans-4-[(2,2,2-trifluoroethyl)amino]cyclohexyl}benzamide]"
12,3.2 nM,"Cn1nnnc1N1CC[C@H](NC(=O)c2ccc(-c3nccc4occc34)cc2)C1 [Example 231, (S)-4-(furo[3,2-c]pyridin-4-yl)-N-[1-(1-methyl-1H-tetrazol-5-yl)pyrrolidin-3-yl]benzamide]"
13,1.8 nM,"O=C(N[C@@H]1COCCN(c2ncccn2)C1)c1ccc(-c2nccc3occc23)cc1 [Example 224, (S)-4-(furo[3,2-c]pyridin-4-yl)-N-[4-(pyrimidin-2-yl)-1,4-oxazepan-6-yl]benzamide]"
14,0.63 nM,"O=C(N[C@H]1CCN(c2ncccn2)C1)c1ccc(-c2nccc3occc23)cc1 [Example 191, (S)-4-(furo[3,2-c]pyridin-4-yl)-N-[1-(pyrimidin-2-yl)pyrrolidin-3-yl]benzamide]"
15,1.8 nM,"Cc1cc2occc2c(-c2ccc(C(=O)N[C@H]3CC[C@H](NCC(F)F)CC3)cc2)n1 [Example 331, N-{trans-4-[(2,2-difluoroethyl)amino]cyclohexyl}-4-(6-methylfuro[3,2-c]pyridin-4-yl)benzamide]"
16,1.2 nM,"Cn1cc(N2CCC(NC(=O)c3ccc(-c4nccc5occc45)cc3)CC2)cn1 [Example 252, 4-(furo[3,2-c]pyridin-4-yl)-N-[1-(1-methyl-1H-pyrazol-4-yl)piperidin-4-yl]benzamide]"
17,12 nM,"O=C(NC[C@H]1C[C@@H](O)C1)c1ccc(-c2nccc3occc23)cc1 [Example 219, 4-(furo[3,2-c]pyridin-4-yl)-N-[(cis-3-hydroxycyclobutyl)methyl]benzamide]"
18,0.63 nM,"CCn1nccc1CNC(=O)c1ccc(-c2nccc3[nH]ccc23)cc1 [Example 51, N-[(1-ethyl-1H-pyrazol-5-yl)methyl]-4-(1H-pyrrolo[3,2-c]pyridin-4-yl)benzamide]"
19,2.5 nM,"O=C(N[C@@H]1CC[C@@H](CO)OC1)c1ccc(-c2nccc3occc23)cc1 [Example 211, 4-(furo[3,2-c]pyridin-4-yl)-N-[(3R,6S)-6-(hydroxymethyl)tetrahydro-2 H-pyran-3-yl]benzamide]"
20,1.8 nM,"CC(C)(O)[C@H]1CC[C@H](NC(=O)c2ccc(-c3nc(Cl)cc4occc34)cc2)CC1 [Example 312, 4-(6-chlorofuro[3,2-c]pyridin-4-yl)-N-[trans-4-(2-hydroxypropan-2-yl)cyclohexyl]benzamide]"
21,367 nM,"CC(C)(O)[C@H]1CC[C@H](NC(=O)c2ccc(-c3nc(C(N)=O)cc4occc34)cc2)CC1 [Example 318, 4-(4-{[trans-4-(2-hydroxypropan-2-yl)cyclohexyl]carbamoyl}phenyl)furo[3,2-c]pyridine-6-carboxamide]"
22,1.6 nM,"Cc1cc(NC(=O)c2ccc(-c3nccc4occc34)cc2)ccc1S(N)(=O)=O [Example 116, 4-(furo[3,2-c]pyridin-4-yl)-N-(3-methyl-4-sulfamoylphenyl) benzamide]"
23,15 nM,"O=C(NCC1CC1)c1ccc(-c2nccc3occc23)cc1 [Example 83, N-(cyclopropyl-methyl)-4-(furo[3,2-c]pyridin-4-yl)benzamide]"
24,0.78 nM,"N#Cc1ccnc(N2CCC(NC(=O)c3ccc(-c4nccc5occc45)cc3)CC2)n1 [Example 164, N-[1-(4-cyanopyrimidin-2-yl)piperidin-4-yl]-4-(furo[3,2-c]pyridin-4-yl)benzamide]"
25,2.3 nM,"CC(=O)N1CCC(NC(=O)c2ccc(-c3nccc4occc34)cc2)CC1 [Example 186, N-(1-acetylpiperidin-4-yl)-4-(furo[3,2-c]pyridin-4-yl)benzamide]"
26,160 nM,"CC(O)c1cnc(-c2ccc(C(=O)N[C@H]3CC[C@H](C(C)(C)O)CC3)cc2)c2ccoc12 (stereo partly drawn) [Example 141, 4-[7-(1-hydroxyethyl)furo[3,2-c]pyridin-4-yl]-N-[trans-4-(2-hydroxypropan-2-yl)cyclohexyl]benzamide]"
27,0.82 nM,"O=C(NCC1CCOC1)c1ccc(-c2nccc3[nH]ccc23)cc1 (stereo not drawn) [Example 21, 4-(1H-pyrrolo[3,2-c]pyridin-4-yl)-N-[(tetrahydrofuran-3-yl)methyl] benzamide]"
28,1.7 nM,"O=C(NCc1ccco1)c1ccc(-c2nccc3[nH]ccc23)cc1 [Example 26, N-(furan-2-ylmethyl)-4-(1H-pyrrolo[3,2-c]pyridin-4-yl)benzamide]"
29,1.5 nM,"O=C(NC1CCN(c2ncccc2F)CC1)c1ccc(-c2nccc3occc23)cc1 [Example 144, N-[1-(3-fluoropyridin-2-yl)piperidin-4-yl]-4-(furo[3,2-c]pyridin-4-yl)benzamide]"
30,2.7 nM,"CCCCn1nnnc1N1CCC(NC(=O)c2ccc(-c3nccc4occc34)cc2)CC1 [Example 241, N-[1-(1-butyl-1H-tetrazol-5-yl)piperidin-4-yl]-4-(furo[3,2-c]pyridin-4-yl)benzamide]"
